ChEMBL document CHEMBL6127064, “Discovery of GNE-6893, a Potent, Selective, Orally Bioavailable Small Molecule Inhibitor of HPK1” (ACS Med Chem Lett, 2024)

How the values were obtained:
[1] = Inhibition of human full length HPK1-T165E/S171E mutant expressed in baculovirus expression system assessed as inhibition of SLP76 phosphorylation using biotinylated SLP76 as substrate preincubated for 30 mins followed by incubation with substrate in presence of ATP and measured for 60 mins by HTRF assay
[2] = Cytotoxicity against human liver-microtissues upto 100 uM; format: toxicity, tissue-based
Hepatocyte = experiment: Cytotoxicity against human primary hepatocytes upto 100 uM; format: toxicity, cell-based
Aurora kinase B = Aurora kinase B (Homo sapiens, UniProt Q96GD4); experiment: Inhibition of Aurora kinase B (unknown origin)
[3] = molecular target: T1, Mitogen-activated protein kinase kinase kinase kinase 1 (Homo sapiens, UniProt Q92918); experiment: Inhibition of HPK1 in primary human Pan T cells assessed as increase in IL-2 secretion pretreated for 30 mins followed by incubation with anti-CD3/anti-CD28 and measured after 4 hrs by MSD assay; format: cell-based, T cell
[4] = Volume of distribution at steady state in C57BL/6 mouse at 25 mg/kg, po or 1 mg/kg, iv measured for 24 hrs by LC-MS/MS analysis; format: ADME, organism-based; details: in vivo
[5] = Protein binding in dog plasma; format: ADME, cell-free, Canis lupus familiaris; details: read-out: PPB (converted)
[6] = Selectivity ratio of IC50 for inhibition of KHS1 (unknown origin) to Ki for inhibition of human full length HPK1-T165E/S171E mutant expressed in baculovirus expression system
[7] = Selectivity ratio of IC50 for inhibition of MINK1 (unknown origin) to Ki for inhibition of human full length HPK1-T165E/S171E mutant expressed in baculovirus expression system
[8] = Half life in cynomolgus monkey at 0.5 mg/kg, po or 0.5 mg/kg, iv by measured for 24 hrs LC/MS/MS analysis; format: ADME, organism-based, Macaca fascicularis; details: in vivo
[9] = Half life in Sprague-Dawley rat at 0.5 mg/kg, iv measured for 8 hrs by LC-MS/MS analysis; format: ADME, organism-based; details: in vivo
[10] = molecular target: T2, D(4) dopamine receptor (Homo sapiens) (UniProt P21917); experiment: Inhibition of dopamine D4 receptor (unknown origin) at 10 uM
T2 sequence (whole entry): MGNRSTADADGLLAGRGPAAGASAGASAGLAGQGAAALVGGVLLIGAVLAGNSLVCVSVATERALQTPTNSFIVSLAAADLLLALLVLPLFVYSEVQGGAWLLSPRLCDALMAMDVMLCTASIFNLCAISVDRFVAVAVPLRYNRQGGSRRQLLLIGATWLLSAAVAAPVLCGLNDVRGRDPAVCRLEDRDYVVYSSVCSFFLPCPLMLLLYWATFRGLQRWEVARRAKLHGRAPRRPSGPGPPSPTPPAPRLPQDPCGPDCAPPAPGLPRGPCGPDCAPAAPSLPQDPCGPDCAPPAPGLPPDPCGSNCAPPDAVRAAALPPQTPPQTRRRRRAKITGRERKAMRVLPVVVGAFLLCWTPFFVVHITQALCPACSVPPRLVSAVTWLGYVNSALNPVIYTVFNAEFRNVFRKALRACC

[11] = molecular target: Leucine-rich repeat serine/threonine-protein kinase 2 (Homo sapiens, UniProt Q5S007); experiment: Inhibition of LRRK2 (unknown origin)
[12] = Oral bioavailability in Sprague-Dawley rat; format: ADME, organism-based; details: in vivo
[13] = Inhibition of KHS1 (unknown origin); parameters: species or system Homo sapiens
[14] = Selectivity ratio of IC50 for inhibition of MAP4K4 (unknown origin) to Ki for inhibition of human full length HPK1-T165E/S171E mutant expressed in baculovirus expression system
[15] = Selectivity ratio of IC50 for inhibition of GLK (unknown origin) to Ki for inhibition of human full length HPK1-T165E/S171E mutant expressed in baculovirus expression system
[16] = Clearance in Sprague-Dawley rat at 0.5 mg/kg, iv measured for 8 hrs by LC-MS/MS analysis; format: ADME, organism-based; details: in vivo
[17] = Oral bioavailability in C57BL/6 mouse at 25 mg/kg measured for 24 hrs by LC-MS/MS analysis; format: ADME, organism-based; details: C57BL/6, mouse, in vivo
[18] = Oral bioavailability in Beagle dog at 0.5 mg/kg measured for 24 hrs by LC/MS/MS analysis; format: ADME, organism-based, Canis lupus familiaris; details: in vivo
[19] = Volume of distribution at steady state in cynomolgus monkey at 0.5 mg/kg, po or 0.5 mg/kg, iv measured for 24 hrs by LC/MS/MS analysis; format: ADME, organism-based, Macaca fascicularis; details: in vivo
[20] = molecular target: Voltage-dependent L-type calcium channel subunit alpha-1C (Homo sapiens, UniProt Q13936); experiment: Inhibition of Cav1.2 (unknown origin)
[21] = molecular target: T1, Mitogen-activated protein kinase kinase kinase kinase 1; experiment: Inhibition of HPK1 in human Jurkat cells assessed as inhibition of anti-CD3/anti-CD28-induced SLP76 phosporylation at Ser376 residue incubated for 30 mins by ELISA; format: cell-based
[22] = molecular target: Voltage-gated inwardly rectifying potassium channel KCNH2 (Homo sapiens, UniProt Q12809); experiment: Inhibition of hERG; format: toxicity
[23] = Half life in C57BL/6 mouse at 25 mg/kg, po or 1 mg/kg, iv measured for 24 hrs by LC-MS/MS analysis; format: ADME, organism-based; details: in vivo
[24] = Selectivity ratio of IC50 for inhibition of GCK (unknown origin) to Ki for inhibition of human full length HPK1-T165E/S171E mutant expressed in baculovirus expression system
[25] = molecular target: T3, Mitogen-activated protein kinase kinase kinase kinase 3 (Homo sapiens, UniProt Q8IVH8); experiment: Inhibition of GLK (unknown origin)
T3 sequence (Q8IVH8 whole entry): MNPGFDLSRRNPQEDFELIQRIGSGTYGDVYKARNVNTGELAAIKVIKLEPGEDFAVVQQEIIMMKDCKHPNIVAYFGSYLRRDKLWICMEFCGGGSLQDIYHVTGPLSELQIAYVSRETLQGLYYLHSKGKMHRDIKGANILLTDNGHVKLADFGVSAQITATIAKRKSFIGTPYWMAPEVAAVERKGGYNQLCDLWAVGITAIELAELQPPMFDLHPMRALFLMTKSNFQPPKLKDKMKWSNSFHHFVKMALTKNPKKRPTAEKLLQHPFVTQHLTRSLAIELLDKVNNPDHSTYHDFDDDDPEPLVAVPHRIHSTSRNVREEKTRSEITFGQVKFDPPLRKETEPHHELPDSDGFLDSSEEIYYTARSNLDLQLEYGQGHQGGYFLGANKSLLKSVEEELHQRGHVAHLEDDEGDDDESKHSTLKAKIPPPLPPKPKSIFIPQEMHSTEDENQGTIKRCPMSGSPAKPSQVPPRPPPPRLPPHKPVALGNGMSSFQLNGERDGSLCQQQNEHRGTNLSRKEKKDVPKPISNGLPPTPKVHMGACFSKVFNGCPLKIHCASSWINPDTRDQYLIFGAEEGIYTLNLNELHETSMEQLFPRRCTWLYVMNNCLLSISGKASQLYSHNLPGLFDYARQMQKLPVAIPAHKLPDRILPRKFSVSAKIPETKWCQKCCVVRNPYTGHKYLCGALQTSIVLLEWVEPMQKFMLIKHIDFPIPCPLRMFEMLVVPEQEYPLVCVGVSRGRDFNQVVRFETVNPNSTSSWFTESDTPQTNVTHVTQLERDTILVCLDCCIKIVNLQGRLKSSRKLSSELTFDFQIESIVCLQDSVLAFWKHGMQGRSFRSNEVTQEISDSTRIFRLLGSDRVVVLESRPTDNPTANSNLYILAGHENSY

[26] = Selectivity ratio of IC50 for inhibition of TNIK (unknown origin) to Ki for inhibition of human full length HPK1-T165E/S171E mutant expressed in baculovirus expression system
[27] = molecular target: Sodium-dependent serotonin transporter (Homo sapiens) (UniProt P31645); experiment: Inhibition of 5-HTT (unknown origin) at 10 uM
[28] = Apparent permeability of the compound across apical to basolateral side in dog MDCK1 cells at 10 uM by LC-MS/MS analysis; format: ADME, cell-based, Canis lupus familiaris; details: MDCK
[29] = molecular target: Sodium channel protein type 5 subunit alpha (Homo sapiens, UniProt Q14524); experiment: Inhibition of Nav1.5 (unknown origin)
[30] = Protein binding in rat plasma; format: ADME, cell-free; details: read-out: PPB (converted)
[31] = molecular target: T4, Mitogen-activated protein kinase kinase kinase kinase 2 (Homo sapiens, UniProt Q12851); experiment: Inhibition of GCK (unknown origin)
T4 sequence (Q12851 whole entry): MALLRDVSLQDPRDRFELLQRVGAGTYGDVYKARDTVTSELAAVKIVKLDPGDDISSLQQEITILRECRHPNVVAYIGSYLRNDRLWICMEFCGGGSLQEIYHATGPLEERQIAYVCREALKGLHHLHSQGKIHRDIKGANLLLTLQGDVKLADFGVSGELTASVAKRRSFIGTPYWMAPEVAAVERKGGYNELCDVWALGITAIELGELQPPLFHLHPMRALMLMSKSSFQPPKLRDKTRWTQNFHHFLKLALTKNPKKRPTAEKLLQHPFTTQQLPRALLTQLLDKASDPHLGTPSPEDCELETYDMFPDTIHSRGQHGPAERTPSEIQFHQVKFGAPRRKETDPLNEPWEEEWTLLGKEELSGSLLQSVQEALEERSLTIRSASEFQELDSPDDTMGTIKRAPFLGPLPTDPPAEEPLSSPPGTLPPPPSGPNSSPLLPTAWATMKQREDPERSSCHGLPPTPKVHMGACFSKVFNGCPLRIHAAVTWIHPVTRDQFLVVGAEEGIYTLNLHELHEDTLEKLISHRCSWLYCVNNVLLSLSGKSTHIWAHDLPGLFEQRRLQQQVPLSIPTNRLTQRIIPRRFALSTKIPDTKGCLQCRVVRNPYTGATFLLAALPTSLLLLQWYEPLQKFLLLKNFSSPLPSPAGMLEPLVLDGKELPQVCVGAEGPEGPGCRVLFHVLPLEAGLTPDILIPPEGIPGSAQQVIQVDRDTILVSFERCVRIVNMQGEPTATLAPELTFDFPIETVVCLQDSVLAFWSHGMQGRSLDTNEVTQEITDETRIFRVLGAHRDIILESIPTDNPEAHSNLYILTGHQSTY

[32] = molecular target: Mitogen-activated protein kinase kinase kinase kinase 4 (Homo sapiens, UniProt O95819); experiment: Inhibition of MAP4K4 (unknown origin)
[33] = Half life in Beagle dog at 0.5 mg/kg, po or 0.5 mg/kg, iv measured for 24 hrs by LC/MS/MS analysis; format: ADME, organism-based, Canis lupus familiaris; details: in vivo
[34] = Oral bioavailability in cynomolgus monkey at 0.5 mg/kg measured for 24 hrs by LC/MS/MS analysis; format: ADME, organism-based, Macaca fascicularis; details: in vivo
Misshapen-like kinase 1 = Misshapen-like kinase 1 (Homo sapiens, UniProt Q8N4C8); experiment: Inhibition of MINK1 (unknown origin)
Homo sapiens = species on record: Homo sapiens; experiment: Inhibition of benzodiazepine receptor (unknown origin) at 10 uM
[35] = molecular target: TRAF2 and NCK-interacting protein kinase (Homo sapiens, UniProt Q9UKE5); experiment: Inhibition of TNIK (unknown origin)
[36] = Volume of distribution at steady state in Sprague-Dawley rat at 0.5 mg/kg, iv measured for 8 hrs by LC-MS/MS analysis; format: ADME, organism-based; details: in vivo, read-out: Vdss
[37] = Volume of distribution at steady state in Beagle dog at 0.5 mg/kg, po or 0.5 mg/kg, iv measured for 24 hrs by LC/MS/MS analysis; format: ADME, organism-based, Canis lupus familiaris; details: in vivo
[38] = Protein binding in cynomolgus monkey plasma; format: ADME, cell-free, Macaca fascicularis; details: read-out: PPB (converted)
[39] = Protein binding in mouse plasma; format: ADME, cell-free; details: read-out: PPB (converted)

T1 sequence (Q92918 whole entry): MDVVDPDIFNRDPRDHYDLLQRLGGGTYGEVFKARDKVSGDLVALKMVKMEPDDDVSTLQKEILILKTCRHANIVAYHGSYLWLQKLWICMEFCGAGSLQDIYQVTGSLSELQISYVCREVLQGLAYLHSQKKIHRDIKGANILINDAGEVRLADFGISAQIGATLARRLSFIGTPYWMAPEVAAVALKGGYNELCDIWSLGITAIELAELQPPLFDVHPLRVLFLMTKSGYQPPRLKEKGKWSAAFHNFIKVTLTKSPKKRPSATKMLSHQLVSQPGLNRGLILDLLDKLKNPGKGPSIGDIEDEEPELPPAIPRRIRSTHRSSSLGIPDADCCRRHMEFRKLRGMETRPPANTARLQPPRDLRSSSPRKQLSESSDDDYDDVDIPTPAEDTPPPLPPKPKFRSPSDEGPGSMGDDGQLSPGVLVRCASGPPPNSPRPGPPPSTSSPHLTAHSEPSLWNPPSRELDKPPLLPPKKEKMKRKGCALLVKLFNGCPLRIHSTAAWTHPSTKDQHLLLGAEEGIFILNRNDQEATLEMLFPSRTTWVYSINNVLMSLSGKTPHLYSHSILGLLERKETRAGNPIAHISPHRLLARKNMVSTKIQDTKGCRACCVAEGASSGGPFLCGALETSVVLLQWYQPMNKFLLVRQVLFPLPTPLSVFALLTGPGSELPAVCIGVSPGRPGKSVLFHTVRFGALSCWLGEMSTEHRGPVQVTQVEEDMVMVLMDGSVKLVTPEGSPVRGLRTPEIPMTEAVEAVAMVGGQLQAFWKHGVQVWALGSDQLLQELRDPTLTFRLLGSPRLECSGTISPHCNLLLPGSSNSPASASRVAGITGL
Sequence of TRAF2 and NCK-interacting protein kinase (Q9UKE5 whole entry): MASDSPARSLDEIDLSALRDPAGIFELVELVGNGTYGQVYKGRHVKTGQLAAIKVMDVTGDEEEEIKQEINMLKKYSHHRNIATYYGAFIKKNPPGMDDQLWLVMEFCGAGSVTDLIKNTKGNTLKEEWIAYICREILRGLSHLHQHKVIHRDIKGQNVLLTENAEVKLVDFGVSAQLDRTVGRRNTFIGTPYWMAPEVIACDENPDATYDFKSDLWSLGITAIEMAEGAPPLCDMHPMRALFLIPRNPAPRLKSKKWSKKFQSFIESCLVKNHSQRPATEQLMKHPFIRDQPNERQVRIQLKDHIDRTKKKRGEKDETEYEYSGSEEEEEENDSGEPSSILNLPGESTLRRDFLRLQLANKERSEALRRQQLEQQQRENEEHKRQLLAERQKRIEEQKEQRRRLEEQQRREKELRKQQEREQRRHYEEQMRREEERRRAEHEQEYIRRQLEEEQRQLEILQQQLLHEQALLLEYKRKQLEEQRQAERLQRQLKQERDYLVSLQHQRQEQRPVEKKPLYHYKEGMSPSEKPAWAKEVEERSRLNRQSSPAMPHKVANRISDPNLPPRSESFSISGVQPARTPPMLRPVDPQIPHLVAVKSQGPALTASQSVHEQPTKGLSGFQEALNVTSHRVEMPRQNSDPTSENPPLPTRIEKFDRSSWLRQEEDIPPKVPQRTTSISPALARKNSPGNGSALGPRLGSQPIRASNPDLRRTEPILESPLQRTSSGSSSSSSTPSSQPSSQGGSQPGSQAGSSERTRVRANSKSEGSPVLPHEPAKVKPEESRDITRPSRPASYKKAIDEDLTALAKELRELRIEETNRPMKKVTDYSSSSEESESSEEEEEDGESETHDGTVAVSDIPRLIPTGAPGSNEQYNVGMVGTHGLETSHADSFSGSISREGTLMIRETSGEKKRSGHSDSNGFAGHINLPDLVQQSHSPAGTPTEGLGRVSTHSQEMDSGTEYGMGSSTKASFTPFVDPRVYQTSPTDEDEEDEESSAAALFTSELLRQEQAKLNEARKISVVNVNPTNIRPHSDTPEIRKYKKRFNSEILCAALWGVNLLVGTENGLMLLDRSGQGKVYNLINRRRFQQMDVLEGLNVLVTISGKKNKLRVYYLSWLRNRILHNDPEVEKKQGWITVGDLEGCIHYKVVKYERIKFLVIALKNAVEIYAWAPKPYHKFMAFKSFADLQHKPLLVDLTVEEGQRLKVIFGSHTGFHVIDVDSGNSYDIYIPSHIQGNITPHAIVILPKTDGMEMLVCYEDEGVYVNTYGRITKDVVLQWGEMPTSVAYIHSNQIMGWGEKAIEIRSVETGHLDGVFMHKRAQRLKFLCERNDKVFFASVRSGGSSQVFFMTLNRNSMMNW
Sequence of Mitogen-activated protein kinase kinase kinase kinase 4 (O95819 whole entry): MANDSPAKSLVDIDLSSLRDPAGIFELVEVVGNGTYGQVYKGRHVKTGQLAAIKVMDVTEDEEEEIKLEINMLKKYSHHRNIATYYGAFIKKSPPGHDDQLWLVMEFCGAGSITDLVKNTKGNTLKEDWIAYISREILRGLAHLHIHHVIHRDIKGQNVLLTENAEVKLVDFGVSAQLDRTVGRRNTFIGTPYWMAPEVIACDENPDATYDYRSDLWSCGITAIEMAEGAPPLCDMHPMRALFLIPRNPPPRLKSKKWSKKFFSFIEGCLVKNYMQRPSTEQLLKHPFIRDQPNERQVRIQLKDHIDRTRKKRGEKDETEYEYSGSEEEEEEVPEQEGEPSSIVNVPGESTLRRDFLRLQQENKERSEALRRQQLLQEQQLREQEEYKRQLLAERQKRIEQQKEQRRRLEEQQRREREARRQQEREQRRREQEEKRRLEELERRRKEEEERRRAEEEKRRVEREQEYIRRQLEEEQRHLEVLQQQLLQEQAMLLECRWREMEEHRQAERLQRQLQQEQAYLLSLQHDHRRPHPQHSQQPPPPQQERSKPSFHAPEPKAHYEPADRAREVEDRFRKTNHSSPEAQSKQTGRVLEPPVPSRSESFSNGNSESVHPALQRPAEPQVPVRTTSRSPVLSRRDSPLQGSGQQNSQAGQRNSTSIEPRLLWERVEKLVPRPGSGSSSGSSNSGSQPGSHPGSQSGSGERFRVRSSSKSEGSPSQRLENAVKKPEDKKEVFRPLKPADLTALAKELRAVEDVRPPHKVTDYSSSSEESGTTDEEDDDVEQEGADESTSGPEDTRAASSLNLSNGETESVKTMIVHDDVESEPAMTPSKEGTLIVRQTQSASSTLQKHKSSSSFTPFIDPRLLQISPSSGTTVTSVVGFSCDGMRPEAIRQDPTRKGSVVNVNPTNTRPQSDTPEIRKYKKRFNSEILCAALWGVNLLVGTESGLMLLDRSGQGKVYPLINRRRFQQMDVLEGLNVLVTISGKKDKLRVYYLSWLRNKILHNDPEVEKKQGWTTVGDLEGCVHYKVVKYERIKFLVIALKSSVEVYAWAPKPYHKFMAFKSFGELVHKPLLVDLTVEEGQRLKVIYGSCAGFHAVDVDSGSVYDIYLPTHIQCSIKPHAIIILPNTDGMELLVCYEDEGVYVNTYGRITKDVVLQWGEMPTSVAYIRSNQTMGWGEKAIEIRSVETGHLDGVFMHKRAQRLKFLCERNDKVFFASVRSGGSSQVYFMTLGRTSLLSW
Sequence of Misshapen-like kinase 1 (Q8N4C8 whole entry): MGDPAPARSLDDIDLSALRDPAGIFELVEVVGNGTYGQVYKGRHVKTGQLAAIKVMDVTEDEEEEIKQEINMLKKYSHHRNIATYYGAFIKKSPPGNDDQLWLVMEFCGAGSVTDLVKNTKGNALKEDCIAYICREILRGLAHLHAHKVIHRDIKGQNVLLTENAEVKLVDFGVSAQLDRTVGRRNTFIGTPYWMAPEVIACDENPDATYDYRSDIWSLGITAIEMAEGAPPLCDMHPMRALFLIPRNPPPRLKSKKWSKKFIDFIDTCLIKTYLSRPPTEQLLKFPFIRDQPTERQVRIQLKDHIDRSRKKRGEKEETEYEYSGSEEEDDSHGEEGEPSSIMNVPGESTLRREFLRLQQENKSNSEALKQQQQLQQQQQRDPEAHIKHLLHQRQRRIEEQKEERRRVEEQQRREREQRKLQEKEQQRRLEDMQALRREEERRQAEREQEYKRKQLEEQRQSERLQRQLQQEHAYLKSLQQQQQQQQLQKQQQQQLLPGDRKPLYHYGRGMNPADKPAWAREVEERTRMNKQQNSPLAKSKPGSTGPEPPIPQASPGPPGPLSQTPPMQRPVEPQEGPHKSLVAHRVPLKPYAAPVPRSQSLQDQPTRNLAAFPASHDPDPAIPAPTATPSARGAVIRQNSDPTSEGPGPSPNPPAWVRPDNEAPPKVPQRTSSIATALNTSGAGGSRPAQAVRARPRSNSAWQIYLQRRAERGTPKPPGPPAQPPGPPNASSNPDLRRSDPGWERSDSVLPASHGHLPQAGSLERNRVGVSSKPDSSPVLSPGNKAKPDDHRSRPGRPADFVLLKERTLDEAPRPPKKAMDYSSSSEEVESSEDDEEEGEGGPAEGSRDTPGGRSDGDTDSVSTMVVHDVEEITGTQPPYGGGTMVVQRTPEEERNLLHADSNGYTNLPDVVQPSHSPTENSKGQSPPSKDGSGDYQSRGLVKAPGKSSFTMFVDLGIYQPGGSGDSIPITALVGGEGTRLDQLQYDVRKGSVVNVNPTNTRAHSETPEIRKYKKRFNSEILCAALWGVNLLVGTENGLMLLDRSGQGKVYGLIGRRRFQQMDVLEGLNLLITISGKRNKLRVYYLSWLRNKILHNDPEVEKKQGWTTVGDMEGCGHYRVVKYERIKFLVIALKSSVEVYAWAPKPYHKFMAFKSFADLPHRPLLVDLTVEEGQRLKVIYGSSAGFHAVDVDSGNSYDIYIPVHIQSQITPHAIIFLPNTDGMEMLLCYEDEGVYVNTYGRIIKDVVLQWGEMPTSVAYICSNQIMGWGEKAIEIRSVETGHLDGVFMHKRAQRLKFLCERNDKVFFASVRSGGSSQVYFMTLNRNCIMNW
Sequence of Aurora kinase B (Q96GD4 whole entry): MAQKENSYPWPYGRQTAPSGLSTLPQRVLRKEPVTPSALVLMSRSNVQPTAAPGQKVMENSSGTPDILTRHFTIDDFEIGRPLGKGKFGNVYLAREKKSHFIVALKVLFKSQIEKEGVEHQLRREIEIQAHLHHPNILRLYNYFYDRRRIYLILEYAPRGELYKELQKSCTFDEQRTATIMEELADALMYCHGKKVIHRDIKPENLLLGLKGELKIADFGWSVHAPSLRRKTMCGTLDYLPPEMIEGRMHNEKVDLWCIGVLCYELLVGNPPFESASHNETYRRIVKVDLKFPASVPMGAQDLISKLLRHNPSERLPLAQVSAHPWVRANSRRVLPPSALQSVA

Cc1ccncc1-c1cc2cc(Nc3cc4n(n3)CC(=O)N(C)CC4)ncc2c(N)c1F
Ki [1]: 0.16 nM

Cc1c(-c2cc3cc(NC(=O)O[C@H]4COC[C@@H]4C)ncc3c(N)c2F)cnc2c1NCCO2
Activity [2]: Non-Toxic | Activity (Hepatocyte): Non-Toxic | IC50 (Aurora kinase B): 46 nM | EC50 [3]: 6.4 nM | Vdss [4]: 1.8 L/kg | fraction unbound [5]: 0.142 | Ratio [6]: > 170 | Ratio [7]: > 200 | half-life [8]: 1.9 h | half-life [9]: 1.3 h | inhibition [10]: 50% | IC50 [11]: 31 nM | bioavailability [12]: 30% | IC50 [13]: 3.1 nM | Ratio [14]: > 180 | Ratio [15]: > 40 | clearance [16]: 39 mL/min/kg | bioavailability [17]: 37% | bioavailability [18]: 46% | Vdss [19]: 1.9 L/kg | IC50 [20]: > 10000 nM | IC50 [21]: 44 nM | IC50 [22]: 28000 nM | half-life [23]: 1.7 h | Ratio [24]: > 69 | IC50 [25]: 0.72 nM | Ratio [26]: > 120 | inhibition [27]: 50% | Papp A→B at 10 µM [28]: 15 ×10⁻⁶ cm/s | IC50 [29]: > 10000 nM | fraction unbound [30]: 0.094 | IC50 [31]: 1.3 nM | IC50 [32]: 3.3 nM | half-life [33]: 2.5 h | bioavailability [34]: 53% | IC50 (Misshapen-like kinase 1): 3.6 nM | inhibition (Homo sapiens): 50% | IC50 [35]: 2.3 nM | Vd [36]: 2.2 L/kg | Vdss [37]: 2.2 L/kg | fraction unbound [38]: 0.116 | fraction unbound [39]: 0.053 | Ki [1]: < 0.019 nM
